Results as given in patent US20130045267A1, “METHODS OF USING AGENTS THAT MODULATE CLAUDIN EXPRESSION” (priority 2010, published 2013).

Tests used:
[1] = tested on: human cultured keratinocytes and reconstructed human epidermis; conditions: literature (Kurasawa et al. 2009); cited from earlier work
human epidermis sheet = assay: TEER in human epidermal sheets (snap-well system); conditions: 1 mM; for TEER, dmem + SC_1 / TEER, dmem + SC_2 / TEER, mean SC: T0 = 1.00
Description: Epidermal sheets were obtained from discarded human skin using a weck blade (0.08 inch). Epidermal samples were mounted in an adapted snap-well system (Pierro et al., “Zonula Occludens Toxin Structure-Function Analysis, Identification of the Fragment Biologically Active on Tight Junctions and of the Zonulin Receptor Binding Domain,” J. Biol.

occludin mRNA = assay: qPCR of occludin mRNA in PHK treated with PPARγ agonist; format: cell-based, human; conditions: 5 μM, PHK differentiated in high Calcium media (DMEM) 24 h
Procedure: (§1) PHK were differentiated in high Calcium media (DMEM) in the presence of CIG 5 μM in DMSO or media with equivalent amount of DMSO alone, for 24 h. Total RNA was extracted from PHK using the QlAshredder spin column (Qiagen) and RNeasy RNA isolation kits (Qiagen). The quality of total RNA samples (RNA Integrity Number, RIN) was assessed using an Agilent 2100 Bioanalyzer (Agilent Technologies, Palo Alto, Calif.).
(§2) qPCR was performed using the iScript™ cDNA Synthesis kit and iQ™ SYBER Green Supermix assay system (Bio-Rad Laboratories). All PCR amplifications were carried out in triplicate on an iQ5 Multicolor real-time PCR detection system (Bio-Rad). Primers were designed and synthesized by Integrated DNA Technologies. Relative gene expression was calculated by using the 2^−ΔΔCt method, as previously described. The normalized Ct value of each sample was calculated using GAPDH as an endogenous control gene.

CLDN1 mRNA = assay: qPCR of CLDN1 mRNA in PHK treated with PPARγ agonist; format: cell-based, human; conditions: 5 μM, PHK differentiated in high Calcium media (DMEM) 24 h
Procedure: as §1, §2

[2] = tested on: primary human keratinocytes (PHK); assay: Trans Epithelial Electric Resistance (TEER) in PHK monolayers; format: cell-based
Procedure: PHK were plated at a subconfluent density of 2.5−3×10^4 cells/filter in Transwell insert and cultured in Keratinocyte-SFM media until confluent. TEER was measured using an EVOMX voltohmmeter (World Precision Instruments, Sarasota, Fla.). The resistance of cell-free filters was subtracted from each experimental value.
(§3) PHK were plated on glass coverslips at 2-3×10^5 cells/well in a 6-well plate or at 2-3×10^4 cells/filter in Transwell insert (Costar; PET membrane, 0.4 μm pore size, 6.5 mm insert) in Keratinocyte-SFM without antibiotics. The next day after plating, cells were transfected with claudin-1 specific or control (scrambled) siRNAs (Santa Cruz) using Lipofectamine™ 2000 transfection Reagent (Invitrogen). TEER and permeability experiments were conducted 48 hours after PHK were switched to differentiation media.
TEER was measured in PHK as described above. PHK were stimulated with S. aureus-derived peptidoglycan (PGN, 0.2-20 μg/ml, n=3-7) (FIG. 19A), Malp-2 (10-1000 ng/ml, n=3) (FIG. 19B), and Pam3CSK4 a TLR1/2 ligand (0.01-20 μg/ml, n=3-6) (FIG. 19C). Data are presented by analyzing the area under the TEER curve and normalized to the mean values for the control group (media alone)*p<0.05; **p<0.01.

claudin-1 = assay: Western blot of claudin-1 protein in primary human keratinocytes; format: cell-based; conditions: 50 ng/ml; for claudin-1 expression over control: 48 hours, differentiating PHK, n=3; for claudin-1 expression by Western blot: PHK differentiated 48 h
Procedure: Human keratinocytes were isolated from neonatal foreskin. Poumay et al., “Basal Detachment of the Epidermis Using Dispase: Tissue Spatial Organization and Fate of Integrin Alpha 6 Beta 4 and Hemidesmosomes,” J. Invest. Dermatol. 102:111-7 (1994), which is hereby incorporated by reference in its entirety. PHK were cultured in Keratinocyte-SFM (Invitrogen/Gibco) with 1% Pen/Strep, 0.2% Amphotericin B (Invitrogen/Gibco). To differentiate PHK, cells were grown in DMEM (Invitrogen/Gibco) with 10% heat-inactivated fetal bovine serum (Invitrogen/Gibco) and 1% Pen/Strep, 0.2% Amphotericin B (Invitrogen/Gibco). For TJ modulation experiments, the following cytokines were added alone or in combination to the differentiation media; human IL-4 (50 ng/ml; R&D system) and IL-13 (50 ng/ml; R&D system).
PHK were lysed on ice in RIPA lysis buffer (20 mM Tris, 50 mM NaCl, 2 mM EDTA, 2 mM EGTA, 1% sodium deoxycholate, 1% TX-100, and 2% SDS, pH 7.4), with 1:100 Protease Inhibitor Cocktail (Sigma), 1:100 Phosphatase Inhibitor Cocktail ([…] for 30 min at 4° C. The samples were heated at 95° C. for 10 min and then centrifuged at 14,000 rpm for 15 min. Forty μg of protein, determined by BCA (Pierce) in NuPage LDS Sample Buffer (Invitrogen) was applied to 4-12% NuPage Bis-Tris gels (Invitrogen). Electrophoresis was performed under reducing conditions with MES SDS Buffer (Invitrogen). Membranes were incubated in blotting solution (5% non-fat dry milk in PBS+0.05% Tween 20) at RT for 1 h and then incubated with primary antibodies; claudin-1 (JAY.8; Zymed), occludin (OC/3F10; Zymed) and GAPDH (FL-355; Santa Cruz). An HRP-linked secondary antibody (GE Healthcare) was used with ECL (GE Healthcare) to visualize bands by autoradiography with Kodak BioMax MR film. The pixel intensity of each band was estimated with Image J.
as §3

occludin and ZO-1 = assay: Expression of occludin and ZO-1 in PHK differentiated with Th2 cytokines; format: cell-based, human; conditions: PHK differentiated with cytokine
Procedure: Human keratinocytes were isolated from neonatal foreskin. Poumay et al., “Basal Detachment of the Epidermis Using Dispase: Tissue Spatial Organization and Fate of Integrin Alpha 6 Beta 4 and Hemidesmosomes,” J. Invest. Dermatol. 102:111-7 (1994), which is hereby incorporated by reference in its entirety. PHK were cultured in Keratinocyte-SFM (Invitrogen/Gibco) with 1% Pen/Strep, 0.2% Amphotericin B (Invitrogen/Gibco). To differentiate PHK, cells were grown in DMEM (Invitrogen/Gibco) with 10% heat-inactivated fetal bovine serum (Invitrogen/Gibco) and 1% Pen/Strep, 0.2% Amphotericin B (Invitrogen/Gibco). For TJ modulation experiments, the following cytokines were added alone or in combination to the differentiation media; human IL-4 (50 ng/ml; R&D system) and IL-13 (50 ng/ml; R&D system). […]
Previous studies have shown that claudin-1 expression in noncutaneous epithelial cells can be modulated by cytokines and growth factors. […] To test this possibility, PHK were differentiated in the presence or absence of Th2 cytokines, IL-4 and IL-13, and the expression of claudin-1, occludin and ZO-1 was evaluated. […]

Molecule: CCCCCCCCCC(=O)[O-].[Na+] [SC, Sodium Decanoate]
- paracellular permeability [1]: increased paracellular permeability
- transepithelial electrical resistance [1]: decreased transepithelial electrical resistance
- TEER, dmem + SC_1 (human epidermis sheet; 4 h): 0.79
- TEER, dmem + SC_2 (human epidermis sheet; 4 h): 0.69
- TEER, mean SC (human epidermis sheet; 4 h): 0.74
- TEER, dmem + SC_1 (human epidermis sheet; 24 h): 0.56
- TEER, dmem + SC_2 (human epidermis sheet; 24 h): 0.51
- TEER, mean SC (human epidermis sheet; 24 h): 0.54
- TEER over media alone (human epidermis sheet; after 4 hours of treatment): 0.74 fold
- TEER over media alone (human epidermis sheet; after 24 hours): 0.54 fold

Molecule: CC1(COc2ccc(CC3SC(=O)NC3=O)cc2)CCCCC1 (stereo not shown) [ciglitazone]
- occludin mRNA expression (occludin mRNA): 2.0 fold
- occludin mRNA expression (occludin mRNA; listed as CIG): 2 fold
- CLDN1 mRNA expression over DMSO alone (CLDN1 mRNA): 1.7 fold

Molecule: IL-13: human IL-13 (R&D system), Th2 cytokine
- TEER, dose response ([2]; 0.5-100 ng/ml, PHK): only a slight increase in TEER
- claudin-1 expression over control (claudin-1): 1.6±0.3 fold
- claudin-1 expression by Western blot (claudin-1): enhanced expression of claudin-1
- expression of occludin and ZO-1 (occludin and ZO-1): no effect

Molecule: Pam3CSK4 [reference compound]
- tight junction function (area under the TEER curve normalized to media alone) ([2]; PGN 0.2-20 μg/ml, Malp-2 10-1000 ng/ml, Pam3CSK4 0.01-20 μg/ml): increase tight junction function

B1: IL-4: human IL-4 (R&D system), Th2 cytokine (protein, UniProt P05112 25-153, looked up)
Interleukin-4: HKCDITLQEIIKTLNSLTEQKTLCTELTVTDIFAASKNTTEKETFCRAATVLRQFYSHHEKDTRCLGATAQQFHRHKQLIRFLKRLDRNLWGLAGLNSCPVKEANQSTLENFLERLKTIMREKYSKCSS
- TEER peak ([2]; 50 ng/ml, PHK, n=4): 166±24 Ohms×cm^2
- claudin-1 expression over control (claudin-1): 2.1±0.4 fold
- claudin-1 expression by Western blot (claudin-1): enhanced expression of claudin-1
- expression of occludin and ZO-1 (occludin and ZO-1): no effect
